Experimental data: PubChem BioAssay (NCI)
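These data come from cells grown in 96-well plates and exposed to compound for 48 hours at five concentrations. Definition used: TGI = concentration required for complete inhibition of growth.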

How the values were obtained:
Assay in all cases: growth of human tumour cells (NCI), 48 h
[1] = test system: HCT-15 colon
[2] = test system: HL-60(TB) leukemia
[3] = test system: HOP-92 NSCLC
[4] = test system: HS 578T breast
[5] = test system: MDA-MB-231 breast
[6] = test system: MDA-MB-435
[7] = test system: MDA-N
[8] = test system: NCI/ADR-RES ovarian
[9] = test system: PC-3 prostate
[10] = test system: SR leukemia
[11] = test system: T-47D breast
[12] = test system: DLD-1 colon
[13] = test system: DMS 114 small cell lung
[14] = test system: DMS 273 small cell lung
[15] = test system: EKVX NSCLC
[16] = test system: HCT-116 colon
[17] = test system: MALME-3M melanoma
[18] = test system: SNB-78 CNS
[19] = test system: XF 498 CNS
[20] = test system: BT-549 breast

SMILES | TGI [1] | TGI [2] | TGI [3] | TGI [4] | TGI [5] | TGI [6] | TGI [7] | TGI [8] | TGI [9] | TGI [10] | TGI [11] | TGI [12] | TGI [13] | TGI [14] | TGI [15] | TGI [16] | TGI [17] | TGI [18] | TGI [19] | TGI [20]
CCOC(=O)c1csc(NC(=O)CCCC#N)n1 | > 100 µM | > 100 µM | > 100 µM | > 100 µM | > 100 µM | > 100 µM | > 100 µM | > 100 µM | > 100 µM | > 100 µM | > 100 µM |  |  |  |  |  |  |  |  | 
c1ccc([P+](Cc2csnn2)(c2ccccc2)c2ccccc2)cc1 | > 100 µM | > 100 µM | > 100 µM |  |  |  |  |  |  | > 100 µM |  | > 100 µM | > 100 µM | > 100 µM | > 100 µM | > 100 µM | > 100 µM | > 100 µM | > 100 µM | 
O=C(NN1C(=O)CSC1c1ccc(Cl)c(Cl)c1)c1ccncc1 (stereo not given) | > 100 µM | > 100 µM |  |  |  |  |  |  |  |  |  | > 100 µM | > 100 µM | > 100 µM | > 100 µM |  | > 100 µM | > 100 µM | > 100 µM | 
CCc1cc(=O)n(/C(C)=C/c2ccccc2)n1C |  |  | > 100 µM | > 100 µM | > 100 µM | > 100 µM | > 100 µM | > 100 µM | > 100 µM |  | > 100 µM |  |  |  | > 100 µM | > 100 µM |  |  |  | > 100 µM
COc1ccc(/C(C)=N/NC(=S)N(C)C)c(O)c1 |  |  | 98.8 µM | > 100 µM | > 100 µM | > 100 µM | > 100 µM |  | > 100 µM | > 100 µM | > 100 µM |  |  |  | > 100 µM | > 100 µM |  |  |  | 66.6 µM
O=c1c2cc3c(=O)n(CCc4ccccc4CO)c(=O)c3cc2c(=O)n1CCc1ccccc1CO | > 100 µM | > 100 µM |  |  |  |  |  |  |  |  |  | > 100 µM | > 100 µM | > 100 µM |  | > 100 µM | > 100 µM | > 100 µM | > 100 µM | 
Cc1cc(C)nc(NS(=O)(=O)c2ccc(Nc3c4ccccc4nc4c(C(=O)NCCO)cccc34)cc2)n1 | 46 µM | > 100 µM | > 100 µM | > 100 µM | 27.4 µM | 40.7 µM | 69.6 µM | > 100 µM | > 100 µM | 56.1 µM | > 100 µM |  |  |  | > 100 µM |  | 28.7 µM |  |  | 34 µM
COc1ccc(CN2C(=O)C(=O)N(C)C2=O)c2ccccc12 | > 10 µM | > 10 µM |  | > 10 µM | > 10 µM | > 10 µM | > 10 µM | > 10 µM | > 10 µM | > 10 µM | > 10 µM |  |  |  | > 10 µM | > 10 µM | > 10 µM |  |  | 
